Measurements reported in paper PMC10025480 (Frontiers in Pharmacology, 2023).

Columns and labels:
CF-HBE cells = assay: Intracellular Ca2+ measurement (Calcium6), IL-13 pre-treated CF-HBE at ALI; type: cell-based, human; conditions: for direct effect on baseline [Ca2+]i: apical addition; for UTP-stimulated elevation of [Ca2+]i: pre-treatment
Description: CF-HBE cultured at air-liquid interface for 14–21 days were pre-treated with IL-13 (10 ng/mL; 48 h). CF-HBE were then loaded with the Ca^2+-sensitive fluorescent reporter dye, Calcium6 for 120 min at 37°C in Hanks balanced salt solution (HBSS) buffered with 20 mM HEPES (pH 7.4). […] The direct effects of apically administered TMEM16A blockers on [Ca^2+]i as well as effects on the subsequent responses to UTP were measured using a PHERAstar plate reader (BMG Lab Tech, United Kingdom). Equivalent measurements were performed in FRT-TMEM16Aabc cells that had been cultured in 96 well, clear bottom plastic plates and loaded with Calcium6 using the same protocol.

HBE cells (non-CF) = assay: Short-circuit current (ISC) and transepithelial resistance, non-CF HBE; type: cell-based, human; conditions: for Inh172-sensitive ISC / amiloride-sensitive current / magnitude of response to amiloride / forskolin-stimulated current: after compound treatment; for change in transepithelial resistance: vehicle +108 ± 14
Description: HBE cultured at air-liquid interface (ALI) for 14–21 days were mounted in Ussing chambers in symmetrical Ringers solution containing (in mM): 120 NaCl, 25 NaHCO3, 3.3 KH2PO4, 0.8 K2HPO4, 1.2 CaCl2, 1.2 MgCl2, and 10 glucose, and voltage clamped as described above. In some studies, HBE were pre-treated with IL-13 (10 ng/mL; Peprotech, United Kingdom) for 48 h to increase TMEM16A expression levels ([Caputo et al., 2008]). Amiloride (10 μM; apical) was used to block the spontaneous, ENaC-mediated current, whilst UTP (10 μM; apical) and forskolin (10 μM; apical and basolateral) were added to the bath solutions to activate Ca^2+ and cAMP-dependent anion secretory responses, respectively. Inh172 (30 μM; apical and basolateral) was also used to inhibit CFTR function. The TMEM16A blockers were added to the apical side of the Ussing chambers to evaluate effects on each of these currents.

HBE cells = assay: Goblet cell formation (MUC5AC+ and acetylated α-tubulin+ stained area) in HBE; type: cell-based, human; conditions: for acetylated α-tubulin (ciliated) stained area / MUC5AC+ stained area (goblet cells): 96 h; for MUC5AC+ stained area (goblet cells): IL-13 naïve and IL-13 treated cultures
Description: HBE cultured at air-liquid interface for 14–21 days were treated with TMEM16A blockers ± IL-13 (10 ng/mL; basolateral) for 96 h to establish any effects on goblet cell numbers. At 48h, LDH levels in the media were measured according to the manufacturer’s instructions (Roche Cytotoxicity Detection Kit #11644793001), and blockers, IL-13 and media were refreshed. At 96 h, wells were fixed in 4% formaldehyde and were stained with antibodies to MUC5AC (45M1; Thermo Fisher, United Kingdom) and acetylated α-tubulin (6-11B-1; Sigma, United Kingdom) as previously described ([Danahay et al., 2015]; [Danahay et al., 2020b]) with secondary antibodies to enable fluorescence detection of both proteins (Alexa Fluor; Thermo Fisher, United Kingdom). The MUC5AC^+ stained area was visualised using a Zeiss Axiovert epifluorescence microscope with a motorised stage that was used to image the same 9 regions of interest on each insert. ImageJ was used to quantify the MUC5AC^+ and stained area per insert which was normalised to the vehicle control group. The process was repeated for the acetylated α-tubulin^+ stained area.

[1] = test system: human vascular smooth muscle preparations; conditions: ref Papp et al., 2019; cited from earlier work
[2] = parameters: method as in Papp et al., 2019; conditions: PAH patients; ref Papp et al., 2019; cited from earlier work
hTMEM16Aacd = target: T1, hTMEM16Aacd (Homo sapiens, UniProt Q5XXA6); assay: Whole-cell patch clamp (QPatch), HEK-hTMEM16Aacd cells; type: cell-based
T1 construct: expressed in transfected cells; host or cells: HEK cells
T1 sequence (Q5XXA6 1-986): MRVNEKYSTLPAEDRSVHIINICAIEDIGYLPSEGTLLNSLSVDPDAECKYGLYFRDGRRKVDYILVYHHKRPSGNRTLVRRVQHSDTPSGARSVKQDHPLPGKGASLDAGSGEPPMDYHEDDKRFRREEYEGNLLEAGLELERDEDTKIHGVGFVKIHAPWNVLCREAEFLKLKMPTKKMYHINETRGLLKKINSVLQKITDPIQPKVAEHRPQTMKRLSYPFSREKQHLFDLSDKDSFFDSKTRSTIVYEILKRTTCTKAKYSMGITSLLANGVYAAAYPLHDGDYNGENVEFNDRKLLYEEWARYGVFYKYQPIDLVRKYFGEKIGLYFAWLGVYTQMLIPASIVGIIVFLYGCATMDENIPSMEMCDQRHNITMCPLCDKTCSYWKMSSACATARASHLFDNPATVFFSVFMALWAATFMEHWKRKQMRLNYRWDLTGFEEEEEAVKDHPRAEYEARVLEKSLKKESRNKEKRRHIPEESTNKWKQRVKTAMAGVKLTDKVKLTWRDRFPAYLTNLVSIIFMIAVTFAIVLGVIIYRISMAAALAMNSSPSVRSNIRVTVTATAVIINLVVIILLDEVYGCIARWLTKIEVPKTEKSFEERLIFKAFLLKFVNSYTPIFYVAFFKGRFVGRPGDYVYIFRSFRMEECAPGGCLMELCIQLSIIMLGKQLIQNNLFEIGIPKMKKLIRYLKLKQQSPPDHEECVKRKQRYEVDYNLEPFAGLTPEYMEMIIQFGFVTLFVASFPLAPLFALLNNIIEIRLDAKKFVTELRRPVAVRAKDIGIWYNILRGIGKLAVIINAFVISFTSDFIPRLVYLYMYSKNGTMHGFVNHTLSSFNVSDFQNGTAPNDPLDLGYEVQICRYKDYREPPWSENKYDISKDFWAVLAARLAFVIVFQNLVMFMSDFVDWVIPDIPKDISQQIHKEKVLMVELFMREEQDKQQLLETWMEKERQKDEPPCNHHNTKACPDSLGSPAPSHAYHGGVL
Description: Whole-cell voltage-clamp recordings from FRT-hTMEM16Aabc, HEK-hTMEM16Aacd, and HEK293 cells were made using the QPatch planar patch clamp system as described previously ([Bill et al., 2015]; [Danahay et al, 2020a]). TMEM16A currents were assessed using chloride selective solutions with calculated free [Ca^2+]i tightly buffered at either 415 or 0 nM. Current rectification ratios were calculated by dividing the magnitude of the outward current at +90 mV by the magnitude of the inward current at −90 mV.

HEK293 cells = assay: Whole-cell patch clamp (QPatch), parental HEK cells lacking TMEM16A; type: cell-based; conditions: compared with HEK-TMEM16Aacd cells at 0 nM [Ca2+]i
Description: Current rectification ratios were calculated by dividing the magnitude of the outward current at +90 mV by the magnitude of the inward current at −90 mV.

| change in transepithelial resistance (HBE cells (non-CF)) | effect on TMEM16Aacd currents (hTMEM16Aacd; HEK cells, [Ca2+]i clamped at 415 nM, bell shaped concentration response) | EC50 (hTMEM16Aacd; HEK-TMEM16Aacd cells, [Ca2+]i clamped to 0 nM (TMEM16A not activated), read-out: EC50, concentration-dependent increase in current) [nM] | reversal potential of induced current (hTMEM16Aacd; [Ca2+]i clamped to 0 nM) | air-liquid interface integrity (HBE cells; by 48 h after initiating treatment, media on mucosal surface) | Structure (SMILES) | direct effect on baseline [Ca2+]i (CF-HBE cells) | UTP-stimulated elevation of [Ca2+]i (CF-HBE cells) | Inh172-sensitive ISC (HBE cells (non-CF)) | amiloride-sensitive current / magnitude of response to amiloride (HBE cells (non-CF)) | forskolin-stimulated current (HBE cells (non-CF)) | decline in the baseline ISC (HBE cells (non-CF); apical) [%] | acetylated α-tubulin (ciliated) stained area (HBE cells) | MUC5AC+ stained area (goblet cells) (HBE cells) | effect on vascular smooth muscle in vitro [1] | pulmonary artery pressure [2] | effect on currents in parental HEK cell line (HEK293 cells) | reduction in the baseline ISC (HBE cells (non-CF); 10 µM, within 30 min of addition) [%] |
| --- | --- | --- | --- | --- | --- | --- | --- | --- | --- | --- | --- | --- | --- | --- | --- | --- | --- |
| +170 ± 25 Ω cm^2 | – | – | – | – | CCc1oc2ccccc2c1C(=O)c1cc(Br)c(O)c(Br)c1 [benzbromarone] | immediate and transient increase | attenuated | attenuated | attenuated | attenuated | 50 | significantly attenuated | significantly attenuated | relax | paradoxical increase | – | – |
| −174 ± 19 Ω cm^2 | enhancement of currents at low µM | 2700 ± 300 | approximately −50 mV | compromised | O=C(Nc1ccc([N+](=O)[O-])cc1Cl)c1cc(Cl)ccc1O [niclosamide] | immediate and transient increase | attenuated | attenuated | attenuated | attenuated | – | significantly attenuated | significantly attenuated | – | – | Quantitatively similar effects | ~90 |
